Drawing on US6335459B1, “Aryl carboxylic acid and aryl tetrazole derivatives as IP receptor modulators” (Syntex (U.S.A.) LLC, priority 1998, dated 2002), this text covers melting point for 21 compounds.

Structures can show the parent of a compound that is named as a salt.

In general, melting point refers to the temperature of the solid-liquid transition. `O=C(O)COc1cccc(/C=C\COC(=O)N(Cc2ccccc2)c2ccccc2)c1` (as salt: salt) [Example 10B, cis-{3-[3-(benzylphenylcarbamoyloxypropenyl)phenoxy]acetic acid tert-butylamine salt] came in with a melting point of 107 to 108.5 °C.

`CC(C)(C)N.O=C(O)c1cccc(/C=C\CCOC(=O)N(c2ccccc2)c2ccccc2)c1` [Example 14B, cis-3-(4-diphenylcarbamoyloxybut-1-enyl)benzoic acid tert-butylamine salt]: the melting point lay in the range of 172.8 to 176.8 °C.

As to `CC(C)(C)N.O=C(O)Cc1cccc(/C=C\CCOC(=O)N(c2ccccc2)c2ccccc2)c1` [Example 14A, cis-[3-(4-diphenylcarbamoyloxybut-1-enyl)phenyl]acetic acid tert-butylamine salt], the melting point was in the range of 151.2 to 153.1 °C.

Consider `Cc1c(/C=C\COC(=O)N(c2ccccc2)c2ccccc2)cccc1OCC(=O)O` [Example 8, Cis-[3-(3-Diphenylcarbamoyloxypropenyl)-2-methylphenoxy]acetic acid], for which the melting point was 133.4 to 135.5 °C.

For `O=C(O)COc1cccc(/C=C/COC(=O)N(c2ccccc2)c2ccccc2)c1` [Example 6, Trans-[3-(3-Diphenylcarbamoyloxypropenyl)phenoxy}acetic acid], the melting point was 112.4 to 113.7 °C.

`O=C(O)Cc1cccc(CCCCOC(=O)N(c2ccccc2)c2ccccc2)c1` [Example 12, [3-(4-diphenylcarbamoyloxybutyl)phenyl]acetic acid]: the melting point was in the range of 117.8 to 119.6 °C.

`O=C(O)COc1cccc(COC(=O)N(c2ccccc2)c2ccccc2)c1` [Example 4, {3-[(Diphenylcarbamoyloxy)methyl]phenoxy}acetic acid] gave a melting point of 142.2 to 143.8 °C.

With `CC(C)(C)N.O=C(O)c1cccc(/C=C\COC(=O)N(c2ccccc2)c2ccccc2)c1` [Example 14B, cis-3-(3-diphenylcarbamoyloxypropenyl)benzoic acid tert-butylamine salt], the melting point was 180.5 to 184 °C.

As to `CC(C)(C)N.O=C(O)COc1cccc(/C=C\CCCCOC(=O)N(c2ccccc2)c2ccccc2)c1` [Example 10A, cis-[3-(6-diphenylcarbamoyloxyhex-1-enyl)phenoxy]acetic acid tert-butylamine salt], the melting point lay in the range of 87 to 88.5 °C.

For `CC(C)(C)N.CC(CCc1cccc(CC(=O)O)c1)OC(=O)N(c1ccccc1)c1ccccc1` (stereo not drawn) [Example 14C, [3-(3-diphenylcarbamoyloxybutyl)phenyl]acetic acid tert-butylamine salt], the melting point was 112.3 to 113.1 °C.

Take `O=C(O)COc1cccc(COC(=O)N(c2ccccc2)c2ccccc2)c1Cl` [Example 1, {2-Chloro-3-[(diphenylcarbamoyloxy)methyl]phenoxy}acetic acid]: the melting point fell in the range of 182.2 to 182.9 °C.

The compound `O=C(O)CCc1cccc(/C=C\COC(=O)N(c2ccccc2)c2ccccc2)c1` (as salt: salt) [Example 13, cis-3-[3-(3-Diphenylcarbamoyloxypropenyl)phenyl]propionic acid] yielded a melting point of 131.8 to 132.4 °C.

`O=C(O)Cc1cccc(CCOC(=O)N(c2ccccc2)c2ccccc2)c1` [Example 12, [3-(2-diphenylcarbamoyloxyethyl)phenyl]acetic acid] came in with a melting point of 123 to 123.3 °C.

`CC(C)(C)N.O=C(O)CCCOc1cccc(/C=C\COC(=O)N(c2ccccc2)c2ccccc2)c1` [Example 10A, cis-4-[3-(3-diphenylcarbamoyloxypropenyl)phenoxy]butyric acid tert-butylamine salt] gave a melting point of 102 to 106 °C.

Consider `O=C(O)Cc1cccc(CCCCCCOC(=O)N(c2ccccc2)c2ccccc2)c1` [Example 12, [3-(6-diphenylcarbamoyloxyhexyl)phenyl]acetic acid], for which the melting point is 99.8 to 101.7 °C.

`O=C(O)CCCCOc1cccc(/C=C\COC(=O)N(c2ccccc2)c2ccccc2)c1` [Example 10A, cis-5-[3-(3-diphenylcarbamoyloxypropenyl)phenoxy]pentanoic acid] had a melting point of 56.3 to 56.7 °C.

Turning to `Cc1c(CCCOC(=O)N(c2ccccc2)c2ccccc2)cccc1CC(=O)O` [Example 12, [3-(3-diphenylcarbamoyloxypropyl)-2-methylphenyl]acetic acid], the melting point is 128.7 to 129.2 °C.

The compound `O=C(O)COc1cccc(/C=C\CCOC(=O)N(c2ccccc2)c2ccccc2)c1` (as salt: salt) [Example 10A, cis-[3-(4-diphenylcarbamoyloxybut-1-enyl)phenoxy]acetic acid tert-butylamine salt] registered a melting point of 112.5 to 112.8 °C.

Consider `O=C(O)COc1cccc(/C=C\COC(=O)N(c2ccccc2)c2ccccc2)c1` (as salt: salt) [Example 9, Cis-[3-(3-Diphenylcarbamoyloxypropenyl)phenoxy]acetic acid], for which the melting point lay within 132.5 to 135 °C.

On to `Cc1c(COC(=O)N(c2ccccc2)c2ccccc2)cccc1OCC(=O)O` [Example 2, {3-[(Diphenylcarbamoyloxy)methyl]-2-methylphenoxy}acetic acid], for which the melting point is 180.1 to 180.7 °C.

As to `O=C(O)Cc1cccc(CCCCCOC(=O)N(c2ccccc2)c2ccccc2)c1` [Example 12, [3-(5-diphenylcarbamoyloxypentyl)phenyl]acetic acid], the melting point lay within 128.1 to 128.7 °C.
